According to patent US9718782B2, “TrkA kinase inhibitors, compositions and methods thereof” (MERCK SHARP & DOHME CORP, priority 2013, dated 2017):
pIC50: −log10 of the molar value.

Each molecule was assayed against T1, TrkA receptor (Homo sapiens, UniProt P04629) (assay: DiscoverX PathHunter TrkA functional assay (NGF-stimulated U2OS cells)). Conditions: U2OS cells expressing TrkA-Prolink fusion and Shc1-EA; compound 1 hour, then EC80 NGF 3 hours; luminescence.
T1 construct: host or cells: U2OS (PathHunter, 'TrkA p75' cells)
T1 sequence (P04629 33-796): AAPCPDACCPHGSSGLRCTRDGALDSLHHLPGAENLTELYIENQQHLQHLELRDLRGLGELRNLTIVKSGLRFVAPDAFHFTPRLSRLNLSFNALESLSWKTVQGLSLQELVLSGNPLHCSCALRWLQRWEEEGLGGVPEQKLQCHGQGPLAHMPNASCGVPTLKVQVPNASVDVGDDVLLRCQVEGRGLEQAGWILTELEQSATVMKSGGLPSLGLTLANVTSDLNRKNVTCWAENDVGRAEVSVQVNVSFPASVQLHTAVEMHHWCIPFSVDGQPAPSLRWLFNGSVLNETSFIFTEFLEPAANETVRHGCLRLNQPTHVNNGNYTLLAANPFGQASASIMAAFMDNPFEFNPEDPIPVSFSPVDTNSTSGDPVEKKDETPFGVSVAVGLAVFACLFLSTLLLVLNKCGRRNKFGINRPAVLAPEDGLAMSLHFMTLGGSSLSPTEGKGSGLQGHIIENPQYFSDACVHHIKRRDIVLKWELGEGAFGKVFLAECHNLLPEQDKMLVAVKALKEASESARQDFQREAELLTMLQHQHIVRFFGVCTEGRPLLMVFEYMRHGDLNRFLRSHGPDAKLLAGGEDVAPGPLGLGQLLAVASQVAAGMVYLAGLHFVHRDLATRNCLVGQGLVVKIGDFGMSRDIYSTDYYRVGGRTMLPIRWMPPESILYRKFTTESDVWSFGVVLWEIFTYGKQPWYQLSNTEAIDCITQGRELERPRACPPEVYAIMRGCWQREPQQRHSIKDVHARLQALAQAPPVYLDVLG
Assay type: cell-based
Method: TrkA functional activity was measured using a DiscoverX PathHunter assay. In this assay, U2OS cells are express TrkA receptor as a fusion with the weakly complementing fragment of B-galactosidase, which DiscoverX calls “Prolink (PK)”; additionally, Shcl is fused with a larger fragment, which is called “Enzyme Acceptor (EA)”. Activation of the TrkA receptor, upon NGF addition, results in the kinase domain being phosphorylated, resulting in subsequent recruitment of Shcl-EA protein. That recruitment results in an active B-galactosidase enzyme that is detected by addition of a chemiluminescent substrate.
All reagents were purchased from DiscoverX, except for the receptor agonists (NGF, BDNF, NT3) which were purchased from Peprotech. Cells were expanded and frozen into cryovials (TrkA p75 @passage 13, 1.5×10^7 cells/vial; TrkC p75 @passage 11, 1.5×10^7 cells/vial in InVitrogen Recovery Cell Freezing media), and stored in the vapor phase of liquid nitrogen, and thawed immediately before use. Thawed cells were added to a 384-well plate (BD Falcon 384-well white/clear, TC surface 120 uL assay plates (353963), 20 uL of 0.375e6 cells/mL=>7500 cells/well), and allowed to incubate overnight. Compound (10 mM starting dose: 202.5 nL compound yielding 0.81% DMSO final in total assay volume and starting doses 81 uM) was added the following morning and allowed to incubate on cells for 1 hour. Then, 5 uL EC80 of agonist (NGF for TrkA; BDNF for TrkB; NT3 for TrkC) was added and allowed to incubate for 3 hours at room temperature. DiscoverX PathHunter detection reagent is added (12 uL to plate and components diluted in parts as per kit instructions) and the plate is further incubated for 1 hour in the dark. The plate is read via luminescence on the Perkin Elmer Envision.
`Cc1cnc(-c2cccc(NC(=O)NC3c4ccccc4-c4ccccc43)c2)o1` [Compound 62, 1-(9H-fluoren-9-yl)-3-[3-(5-methyl-1,3-oxazol-2-yl)phenyl]urea] showed a pIC50 of 5.89. With `Cn1ccnc1-c1cccc(NC(=O)NC2c3ccccc3-c3ccccc32)c1` [Compound 63, 1-(9H-fluoren-9-yl)-3-[3-(l-methyl-1H-imidazol-2-yl)phenyl]urea] the pIC50 was 7.02. `Cn1nnnc1-c1cccc(NC(=O)NC2c3ccccc3-c3ccccc32)c1` [Compound 64, 1-(9H-fluoren-9-yl)-3-[3-(l-methyl-1H-tetrazol-5-yl)phenyl]urea] gave a pIC50 of 6.48. In the case of `Cc1nc(-c2cccc(NC(=O)NC3c4ccccc4-c4ccccc43)c2)oc1C` [Compound 65, 1-[3-(4,5-dimethyl-1,3-oxazol-2-yl)phenyl]-3-(9H-fluoren-9-yl)urea], the pIC50 was 6.51. `O=C(Nc1cccnc1)NC1c2ccccc2-c2ccccc21` [Compound 66, 1-(9H-fluoren-9-yl)-3-pyridin-3-ylurea] gave a pIC50 of 5.46. `O=C(Nc1ncnn1-c1ccccc1)NC1c2ccccc2-c2ccccc21` [Compound 67, 1-(9H-fluoren-9-yl)-3-(1-phenyl-1H-1,2,4-triazol-5-yl)urea] showed a pIC50 of 5.32. With `O=C(Nc1c(-c2ccco2)nc2ccccn12)NC1c2ccccc2-c2ccccc21` [Compound 68, 1-(9H-fluoren-9-yl)-3-(2-furan-2-ylimidazo[1,2-a]pyridin-3-yl)urea] the pIC50 was 6.01. In the case of `O=C(Nc1c(-c2ccncc2)nc2ccccn12)NC1c2ccccc2-c2ccccc21` [Compound 69, 1-(9H-fluoren-9-yl)-3-(2-pyridin-4-ylimidazo[1,2-a]pyridin-3-yl)urea], the pIC50 was 6.11. `O=C(Nc1conc1-c1ccccc1)NC1c2ccccc2-c2ccccc21` [Compound 70, 1-(9H-fluoren-9-yl)-3-(3-phenylisoxazol-4-yl)urea] showed a pIC50 of 5.66. In the case of `Cc1cnc(-c2ccccc2)c(NC(=O)NC2c3ccccc3-c3ccccc32)c1` [Compound 71, 1-(9H-fluoren-9-yl)-3-(5-methyl-2-phenylpyridin-3-yl)urea], the pIC50 was 6.92. With `O=C(Nc1cncc(-c2cccnc2)c1)NC1c2ccccc2-c2ccccc21` [Compound 72, 1-(3,3′-bipyridin-5-yl)-3-(9H-fluoren-9-yl)urea] the pIC50 was 5.85. Work on `Cn1nccc1-c1cncc(NC(=O)NC2c3ccccc3-c3ccccc32)c1` [Compound 73, 1-(9H-fluoren-9-yl)-3-[5-(1-methyl-1H-pyrazol-5-yl)pyridin-3-yl]urea] yielded a pIC50 of 5.55. For `Cn1ncnc1-c1cncc(NC(=O)NC2c3ccccc3-c3ccccc32)c1` [Compound 74, 1-(9H-fluoren-9-yl)-3-[5-(1-methyl-1H-1,2,4-triazol-5-yl)pyridin-3-yl]urea], the pIC50 was 6.00. `O=C(Nc1cccnc1-c1cccc(F)c1)NC1c2ccccc2-c2ccccc21` [Compound 75, 1-(9H-fluoren-9-yl)-3-[2-(3-fluorophenyl)pyridin-3-yl]urea] showed a pIC50 of 6.72. `O=C(Nc1cccnc1-c1ccccc1F)NC1c2ccccc2-c2ccccc21` [Compound 76, 1-(9H-fluoren-9-yl)-3-[2-(2-fluorophenyl)pyridin-3-yl]urea] gave a pIC50 of 6.49. In the case of `Cc1ccccc1-c1ncccc1NC(=O)NC1c2ccccc2-c2ccccc21` [Compound 77, 1-(9H-fluoren-9-yl)-3-[2-(2-methylphenyl)pyridin-3-yl]urea], the pIC50 was 5.92. `Cc1nc(NC(=O)NC2c3ccccc3-c3ccccc32)n(-c2ccccc2)n1` [Compound 78, 1-(9H-fluoren-9-yl)-3-(3-methyl-1-phenyl-1H-1,2,4-triazol-5-yl)urea] was tested, and the pIC50 was 6.28. With `Cn1ncnc1-c1cccc(NC(=O)NC2c3ccccc3-c3ccccc32)c1` [Compound 79, 1-(9H-fluoren-9-yl)-3-[3-(1-methyl-1H-1,2,4-triazol-5-yl)phenyl]urea] the pIC50 was 7.14. Molecule `O=C(Nc1ccnc(-c2ccccc2)c1)NC1c2ccccc2-c2ccccc21` [Compound 80, 1-(9H-fluoren-9-yl)-3-(2-phenylpyridin-4-yl)urea] has a pIC50 of 6.17. In the case of `Cc1nc(-c2ccccc2)c(NC(=O)NC2c3ccccc3-c3ccccc32)o1` [Compound 81, 1-(9H-fluoren-9-yl)-3-(2-methyl-4-phenyl-1,3-oxazol-5-yl)urea], the pIC50 was 5.41. `Cn1ccnc1-c1cncc(NC(=O)NC2c3ccccc3-c3ccccc32)c1` [Compound 82, 1-(9H-fluoren-9-yl)-3-[5-(1-methyl-1H-imidazol-2-yl)pyridin-3-yl]urea] was tested, and the pIC50 was 6.59. For `O=C(Nc1cccnc1-n1cccn1)NC1c2ccccc2-c2ccccc21` [Compound 83, 1-(9H-fluoren-9-yl)-3-[2-(1H-pyrazol-1-yl)pyridin-3-yl]urea], the pIC50 was 5.52. With `O=C(Nc1cc(F)cnc1-c1ccccc1)NC1c2ccccc2-c2ccccc21` [Compound 84, 1-(9H-fluoren-9-yl)-3-(5-fluoro-2-phenylpyridin-3-yl)urea] the pIC50 was 7.33. Molecule `Cn1ccnc1-c1cc(NC(=O)NC2c3ccccc3-c3ccccc32)n(C)n1` [Compound 85, 1-(9H-fluoren-9-yl)-3-[1-methyl-3-(1-methyl-1H-imidazol-2-yl)-1H-pyrazol-5-yl]urea] has a pIC50 of 7.00. `Cc1nnc(-c2cccc(NC(=O)NC3c4ccccc4-c4ccccc43)c2)n1C` [Compound 86, 1-[3-(4,5-dimethyl-4H-1,2,4-triazol-3-yl)phenyl]-3-(9H-fluoren-9-yl)urea] was tested, and the pIC50 was 6.60.
